From PubChem BioAssay (NCI)
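Method: 48-hour compound exposure of cells in 96-well plates, five concentrations, linear interpolation of endpoints. TGI: total growth inhibition.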

What was measured:
Assay in all cases: NCI anticancer screen, dose series, 48 h
[1] = system: T-47D breast
[2] = system: OVCAR-8 ovarian
[3] = system: HS 578T breast
[4] = system: TK-10 renal
[5] = system: SK-MEL-2 melanoma
[6] = system: OVCAR-5 ovarian
[7] = system: SK-MEL-5 melanoma
[8] = system: SN12C renal
[9] = system: NCI-H23 lung
[10] = system: HOP-62 NSCLC
[11] = system: KM12 colon
[12] = system: OVCAR-3 ovarian
[13] = system: U251 CNS
[14] = system: UACC-257 melanoma
[15] = system: EKVX NSCLC
[16] = system: DU-145 prostate
[17] = system: HCT-15 colon
[18] = system: SK-MEL-28 melanoma
[19] = system: SF-295 CNS
[20] = system: MDA-N
[21] = system: NCI-H460 lung
[22] = system: SF-268 CNS
[23] = system: M14 melanoma
[24] = system: NCI-H522 lung
[25] = system: ACHN renal
[26] = system: NCI-H226 lung
[27] = system: PC-3 prostate
[28] = system: BT-549 breast
[29] = system: COLO 205 colon
[30] = system: 786-0 renal
[31] = system: K-562 leukemia
[32] = system: NCI/ADR-RES ovarian
[33] = system: OVCAR-4 ovarian
[34] = system: MDA-MB-231 breast
[35] = system: HL-60(TB) leukemia
[36] = system: SW-620 colon
[37] = system: LOX IMVI melanoma
[38] = system: MALME-3M melanoma
[39] = system: MCF7 breast
[40] = system: HT29 colon
[41] = system: CCRF-CEM leukemia
[42] = system: RPMI-8226 leukemia
[43] = system: SNB-75 CNS
[44] = system: UO-31 renal
[45] = system: SK-OV-3 ovarian
[46] = system: HCT-116 colon
[47] = system: A498 renal
[48] = system: UACC-62 melanoma
[49] = system: CAKI-1 renal
[50] = system: RXF 393 renal
[51] = system: A549 NSCLC
[52] = system: SNB-19 CNS
[53] = system: HCC-2998 colon
[54] = system: IGROV1 ovarian
[55] = system: MDA-MB-435
[56] = system: MOLT-4 leukemia
[57] = system: SF-539 CNS
[58] = system: HOP-92 NSCLC
[59] = system: SR leukemia

`O=C(O)/C=C(/CC(=O)O)C(=O)O` was tested, and the TGI [1] was 48.1 µM, the TGI [2] was 46.6 µM and the TGI [3] was 40.7 µM. The TGI [4] was 54.6 µM, the TGI [5] was 41.9 µM and the TGI [6] was > 100 µM. It also gave a TGI [7] of 44.1 µM, a TGI [8] of 40.7 µM and a TGI [9] of 57.2 µM. The TGI [10] was 40.1 µM, the TGI [11] was 61.2 µM and the TGI [12] was 34.5 µM. For the same molecule, the TGI [13] was 41.2 µM, the TGI [14] was > 100 µM and the TGI [15] was 51.7 µM. For the same molecule, the TGI [16] was 45.7 µM, the TGI [17] was 54 µM and the TGI [18] was 43.7 µM. The TGI [19] was 37.8 µM, the TGI [20] was 54.6 µM and the TGI [21] was > 100 µM. For the same molecule, the TGI [22] was 40 µM, the TGI [23] was 44.2 µM and the TGI [24] was 35.7 µM. It also gave a TGI [25] of 33.3 µM, a TGI [26] of 45.6 µM and a TGI [27] of 40.2 µM. The TGI [28] was 43.7 µM, the TGI [29] was 38.6 µM and the TGI [30] was 33.3 µM. It also gave a TGI [31] of 42.6 µM, a TGI [32] of 46.1 µM and a TGI [33] of 65.3 µM. It also gave a TGI [34] of 48 µM, a TGI [35] of 42.9 µM and a TGI [36] of 39.8 µM. For the same molecule, the TGI [37] was 47.1 µM, the TGI [38] was 37.3 µM and the TGI [39] was 39.3 µM. For the same molecule, the TGI [40] was 59.2 µM, the TGI [41] was 37.2 µM and the TGI [42] was 37 µM. The TGI [43] was 33.1 µM, the TGI [44] was 33.7 µM and the TGI [45] was 47.6 µM. It also gave a TGI [46] of 35.6 µM, a TGI [47] of 32.7 µM and a TGI [48] of 36.7 µM. It also gave a TGI [49] of 54.1 µM, a TGI [50] of 34.8 µM and a TGI [51] of 43.2 µM. For the same molecule, the TGI [52] was 62.3 µM, the TGI [53] was 90.4 µM and the TGI [54] was 42.2 µM. For the same molecule, the TGI [55] was 42.6 µM, the TGI [56] was 38.4 µM and the TGI [57] was 26 µM.

With `CC(C)CCC[C@@H](C)[C@H]1CC[C@H]2[C@@H]3CC=C4C[C@@H](OC(=O)c5cccc6c(=O)c7ccccc7[nH]c56)CC[C@]4(C)[C@H]3CC[C@]12C` the TGI [1] was > 75 µM, the TGI [2] was > 75 µM and the TGI [3] was > 75 µM. The TGI [4] was > 75 µM, the TGI [5] was > 75 µM and the TGI [6] was > 75 µM. For the same molecule, the TGI [58] was > 75 µM, the TGI [7] was > 75 µM and the TGI [8] was > 75 µM. For the same molecule, the TGI [9] was > 75 µM, the TGI [10] was > 75 µM and the TGI [11] was > 75 µM. For the same molecule, the TGI [12] was > 75 µM, the TGI [13] was > 75 µM and the TGI [14] was > 75 µM. The TGI [15] was > 75 µM, the TGI [17] was > 75 µM and the TGI [18] was > 75 µM. For the same molecule, the TGI [19] was > 75 µM, the TGI [20] was > 75 µM and the TGI [22] was > 75 µM. The TGI [23] was > 75 µM, the TGI [24] was > 75 µM and the TGI [25] was > 75 µM. For the same molecule, the TGI [26] was > 75 µM, the TGI [27] was > 75 µM and the TGI [28] was > 75 µM. The TGI [29] was > 75 µM, the TGI [30] was > 75 µM and the TGI [31] was > 75 µM. The TGI [32] was > 75 µM, the TGI [33] was > 75 µM and the TGI [34] was > 75 µM. The TGI [36] was > 75 µM, the TGI [59] was > 75 µM and the TGI [37] was > 75 µM. For the same molecule, the TGI [38] was > 75 µM, the TGI [39] was > 75 µM and the TGI [40] was > 75 µM. For the same molecule, the TGI [42] was > 75 µM, the TGI [43] was > 75 µM and the TGI [44] was > 75 µM. For the same molecule, the TGI [45] was > 75 µM, the TGI [47] was > 75 µM and the TGI [48] was > 75 µM. The TGI [50] was > 75 µM, the TGI [51] was > 75 µM and the TGI [52] was > 75 µM. For the same molecule, the TGI [53] was > 75 µM, the TGI [54] was > 75 µM and the TGI [55] was > 75 µM. The TGI [56] was > 75 µM and the TGI [57] was > 75 µM.
